Laboratory results published in EP1172104A1, “SEAM SOFT CAPSULE PREPARATIONS CONTAINING DIHYDROBENZOFURAN DERIVATIVE” (CHUGAI SEIYAKU KABUSHIKI KAISHA, priority 1999, dated 2000).

Experiments:
Assay type in all cases: physicochemical
[1] = Stability of seamed soft capsule formulations of BO-653 (2): Formulation 3, shell thickness and glycerin content, HPLC; conditions: Formulation 3 (50% w/w in soybean oil)
Protocol: Formulation 3 obtained in Example 1 was stored at 50°C in a 100% oxygen atmosphere.

[2] = Stability of seamed soft capsule formulation of BO-653 (1): Formulations 1 and 2, accelerated tests, HPLC; conditions: 100% oxygen atmosphere
Protocol: Formulations 1 and 2 obtained in Example 1 were tested for their stability under the conditions below: Condition 1: • Formulation 1 was left at 40°C in a 100% oxygen atmosphere. Condition 2: • Formulation 1 was left at 50°C in a 100% oxygen atmosphere. Condition 3: • Formulation 2 was left at 50°C in a 100% oxygen atmosphere.
As a control, BO-653 was dissolved in soybean oil to give a concentration of 10% by weight and the solution was left at 40°C in a 100% oxygen atmosphere in the form that the solution was not filled into a soft capsule.

[3] = Stability of BO-653 in various fat and oils (influence of oxygen, accelerated test at 80°C, HPLC); conditions: 17 hours
Protocol: The influence of oxygen on the stability of BO-653 in various fat and oils was tested. BO-653 was dissolved in soybean oil, olive oil, MCT, tricaprylin, and linoleic acid separately to give a concentration of 50% by weight. 70 mg of each of the solutions was placed into individual 5 cc glass bottles. Separately, 35 mg of BO-653 was directly placed into a 5 cc glass bottle. The samples were prepared in duplicate. One set of samples were subjected to an argon replacement of the headspace of the bottles and then tightly sealed, while the other set of samples were sealed without argon replacement. Accelerated test at 80°C was conducted using all of the samples.

[4] = Stability of seamed soft capsule formulations of BO-653 (3): Formulation 4, various storage conditions, HPLC

For “4,6-di-tert-butyl-2,2-di-n-pentyl-5-hydroxy-2,3-dihydrobenzofuran [BO-653]”, the “Content (%) of BO-653 after left at 50°C in a 100% oxygen atmosphere for 1 month” value (shortened to “Content (%) of BO-653 after left at 50°C”) ([1]; Capsule No. 1: thickness 26 x 10^-3 inch (66 x 10^-2 mm), glycerin content 30.0) was 99.4%, the “Content (%) of BO-653 after left at 50°C” value ([1]; Capsule No. 2: thickness 30 x 10^-3 inch (76 x 10^-2 mm), glycerin content 30.0) was 99.9% and the “Content (%) of BO-653 after left at 50°C” value ([1]; Capsule No. 3: thickness 34 x 10^-3 inch (86 x 10^-2 mm), glycerin content 30.0) was 99.7%. The “Content (%) of BO-653 after left at 50°C” value ([1]; Capsule No. 4: thickness 26 x 10^-3 inch (66 x 10^-2 mm), glycerin content 44.2) was 98.8%, the “Content (%) of BO-653 after left at 50°C” value ([1]; Capsule No. 5: thickness 30 x 10^-3 inch (76 x 10^-2 mm), glycerin content 44.2) was 100.0% and the “Content (%) of BO-653 after left at 50°C” value ([1]; Capsule No. 6: thickness 34 x 10^-3 inch (86 x 10^-2 mm), glycerin content 44.2) was 100.8%. For the same substance, the “Content (%) of BO-653 after left at 50°C” value ([1]; Capsule No. 8: thickness 30 x 10^-3 inch (76 x 10^-2 mm), glycerin content 56.4) was 97.0%, the “Content (%) of BO-653 after left at 50°C” value ([1]; Capsule No. 9: thickness 34 x 10^-3 inch (86 x 10^-2 mm), glycerin content 56.4) was 98.8% and the “Residual ratio (%) of BO-653” value ([2]; Condition 1: Formulation 1 (10% w/w in soybean oil, seamed soft capsule), 40°C, 1 month) was 100.7%. For the same substance, the “Residual ratio (%) of BO-653” value ([2]; Condition 2: Formulation 1 (10% w/w in soybean oil, seamed soft capsule), 50°C, 2 weeks) was 99.6%, the “Residual ratio (%) of BO-653” value ([2]; Condition 3: Formulation 2 (10% w/w in MCT, seamed soft capsule), 50°C, 3 weeks) was 92.8% and the “Residual ratio (%) of BO-653” value ([2]; Control: 10% by weight solution in soybean oil not filled into a soft capsule, 40°C, 1 month) was < 0.2%. The “residual ratio of BO-653” value ([3]; 50% by weight in soybean oil, without argon replacement (presence of oxygen)) was “Relatively high stability”, the “residual ratio of BO-653” value ([3]; BO-653 alone or 50% by weight in soybean oil, olive oil, MCT, tricaprylin or linoleic acid, with argon replacement (absence of oxygen)) was “little loss” and the “Residual ratio (%) of BO-653” value ([4]; Formulation 4, BO-653 content in filling solution 4% by weight, 40°C, RH75% - 1M) was 99.0%. For the same substance, the “Residual ratio (%) of BO-653” value ([4]; Formulation 4, BO-653 content in filling solution 4% by weight, 50°C, 100% oxygen atmosphere-1M) was 100.0%, the “Residual ratio (%) of BO-653” value ([4]; Formulation 4, BO-653 content in filling solution 4% by weight, irradiation with 1,200,000 lux.hrs white light) was 100.0% and the “Residual ratio (%) of BO-653” value ([4]; Formulation 4, BO-653 content in filling solution 4% by weight, irradiation with 1,200,000 lux.hrs white light followed by 400 W.hrs/m^2 UV rays) was 98.0%. For the same substance, the “Residual ratio (%) of BO-653” value ([4]; Formulation 4, BO-653 content in filling solution 40% by weight, 40°C, RH75% - 1M) was 100.1%, the “Residual ratio (%) of BO-653” value ([4]; Formulation 4, BO-653 content in filling solution 40% by weight, 50°C, 100% oxygen atmosphere-1M) was 100.7% and the “Residual ratio (%) of BO-653” value ([4]; Formulation 4, BO-653 content in filling solution 40% by weight, irradiation with 1,200,000 lux.hrs white light) was 100.0%. The “Residual ratio (%) of BO-653” value ([4]; Formulation 4, BO-653 content in filling solution 40% by weight, irradiation with 1,200,000 lux.hrs white light followed by 400 W.hrs/m^2 UV rays) was 99.7%, the “Residual ratio (%) of BO-653” value ([4]; Formulation 4, BO-653 content in filling solution 80% by weight, 40°C, RH75% - 1M) was 99.8% and the “Residual ratio (%) of BO-653” value ([4]; Formulation 4, BO-653 content in filling solution 80% by weight, 50°C, 100% oxygen atmosphere-1M) was 101.0%. The “Residual ratio (%) of BO-653” value ([4]; Formulation 4, BO-653 content in filling solution 80% by weight, irradiation with 1,200,000 lux.hrs white light) was 99.5% and the “Residual ratio (%) of BO-653” value ([4]; Formulation 4, BO-653 content in filling solution 80% by weight, irradiation with 1,200,000 lux.hrs white light followed by 400 W.hrs/m^2 UV rays) was 99.8%.
